Experimental data as given in US12678419B2, “Compounds” (Sitryx Therapeutics Limited, priority 2020, dated 2026).
Where “and” joins values, the source holds several entries; their conditions need not be identical. Equal entries are not always repeated.

Tests used:
[1] = test system: NRF2 (nuclear factor erythroid 2-related factor 2); assay: NRF2 +/-GSH activation assay (DiscoverX PathHunter NRF2 translocation kit, U2OS cells); type: cell-based; conditions: for Emax (%) +GSH / Emax (%) −GSH: normalised to dimethyl fumarate high control
[2] = test system: IL-6 cytokine output from THP-1s; assay: THP-1 AlphaLISA IL-6 cytokine assay; type: cell-based; conditions: LPS then nigericin, Table 1
Procedure: (§1) The cytokine inhibition profiles of compounds of formula (I) were determined in a differentiated THP-1 cell assay. All assays were performed in RPMI-1640 growth medium (Gibco), supplemented with 10% fetal bovine serum (FBS; Gibco), 1% penicillin-streptomycin and 1% sodium pyruvate unless specified otherwise. The IL-1β and IL-6 cytokine inhibition assays were each run in a background of differentiated THP-1 cells as described below. All reagents described were from Sigma-Aldrich unless specified otherwise. Compounds were prepared as 10 mM DMSO stocks.
(§2) THP-1 cells were expanded as a suspension up to 80% confluence in appropriate growth medium. Cells were harvested, suspended, and treated with an appropriate concentration of phorbol 12-myristate 13-acetate (PMA) over a 72 hr period (37° C./5% CO2).
(§3) Following 72 hrs of THP-1 cell incubation, cellular medium was removed and replaced with fresh growth media containing 1% of FBS. Working concentrations of compounds were prepared separately in 10% FBS treated growth medium and pre-incubated with the cells for 30 minutes (37° C./5% CO2). Following the 30 minute compound pre-incubation, THP-1s were treated with an appropriate concentration of LPS and the THP-1s were subsequently incubated for a 24 hr period (37° C./5% CO2). An appropriate final concentration of Nigericin was then dispensed into the THP-1 plates and incubated for 1 hour (37° C./5% CO2) before THP-1 supernatants were harvested and collected in separate polypropylene 96-well holding plates.
(§4) Reagents from each of the IL-1β and IL-6 commercial kits (Perkin Elmer) were prepared and run according to the manufacturer's instructions. Subsequently, fluorescence signal detection in a microplate reader was measured (EnVision® Multilabel Reader, Perkin Elmer).
(§5) Percentage inhibition was calculated per cytokine by normalising the sample data to the high and low controls used within each plate (+/− LPS respectively). Percentage inhibition was then plotted against compound concentration and the 50% inhibitory concentration (IC50) was determined from the resultant concentration-response curve.

mouse hepatocytes = assay: Hepatocyte stability assay, mouse; type: in vitro ADME; conditions: 10 μM compound
Description: (§6) Defrosted cryo-preserved hepatocytes (viability >70%) were used to determine the metabolic stability of a compound via calculation of intrinsic clearance (Clint; a measure of the removal of a compound from the liver in the absence of blood flow and cell binding). Clearance data are particularly important for in vitro work as they can be used in combination with in vivo data to predict the half-life and oral bioavailability of a drug.
(§7) The metabolic stability in hepatocytes assay involves a time-dependent reaction using both positive and negative controls. The cells were pre-incubated at 37° C. and spiked with test compound (and positive control); samples were taken at pre-determined time intervals were analysed to monitor the change in concentration of the initial drug compound over 60 minutes. A buffer incubation reaction (with no hepatocytes present) acted as a negative control and two cocktail solutions, containing compounds with known high and low clearance values (verapamil/7-hydroxycoumarin and propranolol/diltiazem), acted as positive controls. • 1. The assay was run with a cell concentration of 0.5×10^6 cells/mL in Leibovitz buffer. • 2. All compounds and controls were run in duplicate. • 3. Compound concentration was 10 μM. • 4. All compounds and controls were incubated with both cells and buffer to show turnover was due to hepatic metabolism. • 5. All wells on the incubation plate had 326.7 μL of either cells or buffer added. • 6. Prior to assay, cell and buffer-only incubation plates were preincubated for 10 mins at 37° C. • 7. The assay was initiated by adding compounds, 3.3 μL of 1 mM in 10% DMSO-90% Buffer; final DMSO concentration was 0.1%. • 8. Samples were taken at regular timepoints (0, 5, 10, 20, 40, 60 min) until 60 mins. • 9. Sample volume was 40 μL and was added to 160 μL of crash solvent (acetonitrile with internal standard) and stored on ice. • 10. At the end of the assay, the crash plates were centrifuged at 3500 rpm for 20 mins at 4° C. • 11. 80 μL of clear supernatant was removed and mixed with 80 μL of deionised water before being analysed by LC-MS/MS.
(§8) Raw LC-MS/MS data was exported to, and analysed in, Microsoft Excel for determination of intrinsic clearance. The percentage remaining of a compound was monitored using the peak area of the initial concentration as 100%. Intrinsic clearance and half-life values were calculated using a graph of the natural log of percentage remaining versus the time of reaction in minutes. Half-life (min) and intrinsic clearance (Clint in μL min^−1 10^−6 cells) values were calculated using the gradient of the graph (the elimination rate constant, k) and Equations 1 and 2.

[3] = test system: IL-1β cytokine output from THP-1s; assay: THP-1 AlphaLISA IL-1β cytokine assay; type: cell-based; conditions: LPS then nigericin, Table 1
Procedure: as §1, §2, §3, §4, §5

human hepatocytes = assay: Hepatocyte stability assay, human; type: in vitro ADME; conditions: 10 μM compound
Description: as §6, §7, §8

[4] = Hepatocyte stability assay, human; type: in vitro ADME; conditions: human, cryopreserved hepatocytes, 10 μM compound, read-out: T½
Description: as §6, §7, §8

[5] = Hepatocyte stability assay, mouse; type: in vitro ADME; conditions: mouse, cryopreserved hepatocytes, 10 μM compound, read-out: T½
Description: as §6, §7, §8

[6] = Homo sapiens, THP-1, differentiated THP-1 cells

| Compound | EC50 ([1]; +GSH) | Emax (%) +GSH ([1]; +GSH) | EC50 ([1]; −GSH) | Emax (%) −GSH ([1]; −GSH) | IC50 [2, 6] [µM] | Clint (μL min^−1 10^−6 cells) (mouse hepatocytes) | T½ (mouse hepatocytes) [min] | IC50 [3, 6] [µM] | Clint (μL min^−1 10^−6 cells) (human hepatocytes) | half-life at 10 μM [4] [min] | IC50 ([2]; differentiated THP-1 cells) [µM] | IC50 ([3]; differentiated THP-1 cells) [µM] | T½ (human hepatocytes) [min] | half-life at 10 μM [5] [min] |
| --- | --- | --- | --- | --- | --- | --- | --- | --- | --- | --- | --- | --- | --- | --- |
| C=C(CC(=O)OC1CCc2c(Cl)cc(Cl)cc21)C(=O)OCC(=O)O (single isomer, unassigned; enantiomer 1) [Example 2, 2-((4-((4,6-dichloro-2,3-dihydro-1H-inden-1-yl)oxy)-2-methylene-4-oxobutanoyl)oxy)acetic acid (Enantiomer 1)] | 11.4 µM | 166% | 9 µM | 196% | 4.3 | 51 | 37 | 4 | 13 | 116 |  |  |  |  |
| C=C(CC(=O)OC1CCc2c(Br)cc(F)cc21)C(=O)OCC(=O)O (single isomer, unassigned; enantiomer 1) [Example 15, 2-((4-((4-bromo-6-fluoro-2,3-dihydro-1H-inden-1-yl)oxy)-2-methylene-4-oxobutanoyl)oxy)acetic acid (Enantiomer 1)] |  |  |  |  |  | 51 | 24 | 2.4 | 9 | 165 |  |  |  |  |
| C=C(CC(=O)OC1CCc2c(Cl)cc(Cl)cc21)C(=O)OCC(=O)O (single isomer, unassigned; enantiomer 2) [Example 3, 2-((4-((4,6-dichloro-2,3-dihydro-1H-inden-1-yl)oxy)-2-methylene-4-oxobutanoyl)oxy)acetic acid (Enantiomer 2)] | 15.8 µM | 211% | 9.8 µM | 229% |  | >460 | <3 |  | 16 |  | 3.6 | 5.6 | 93 |  |
| C=C(CC(=O)OC1CCCc2c(Cl)cc(Cl)cc21)C(=O)OCC(=O)O (single isomer, unassigned; enantiomer 2) [Example 25, 2-((4-((5,7-dichloro-1,2,3,4-tetrahydronaphthalen-1-yl)oxy)-2-methylene-4-oxobutanoyl)oxy)acetic acid (Enantiomer 2)] | 10.6 µM | 147% | 6 µM | 205% |  | >460 | <3 |  | 29 |  | 6.2 | 4.8 | 58 |  |
| C=C(CC(=O)OC1CCc2cc(Cl)cc(Cl)c2C1)C(=O)OCC(=O)O (single isomer, unassigned; enantiomer 1) [Example 10, 2-((4-((6,8-dichloro-1,2,3,4-tetrahydronaphthalen-2-yl)oxy)-2-methylene-4-oxobutanoyl)oxy)acetic acid (Enantiomer 1)] |  |  |  |  |  | 225 |  | 6.6 | 18 | 81 |  |  |  | 7 |
| C=C(CC(=O)OC1CCc2ccc(OC(F)(F)F)cc21)C(=O)OCC(=O)O (stereo not drawn) [Example 18, 2-((2-methylene-4-oxo-4-((6-(trifluoromethoxy)-2,3-dihydro-1H-inden-1-yl)oxy)butanoyl)oxy)acetic acid] | 18.4 µM | 105% | 8.7 µM | 121% |  | 146 |  | 2.1 |  |  |  |  |  | 10 |
| C=C(CC(=O)OC1CCc2cc(Cl)c(Cl)cc21)C(=O)OCC(=O)O (single isomer, unassigned; enantiomer 1) [Example 5, 2-((4-((5,6-dichloro-2,3-dihydro-1H-inden-1-yl)oxy)-2-methylene-4-oxobutanoyl)oxy)acetic acid (Enantiomer 1)] | 19.5 µM | 246% | 10.8 µM | 280% |  | 431 | 3 | 12.3 | 11 | 140 |  |  |  |  |
| C=C(CC(=O)OC1CCCc2c(Cl)cc(Cl)cc21)C(=O)OCC(=O)O (single isomer, unassigned; enantiomer 1) [Example 24, 2-((4-((5,7-dichloro-1,2,3,4-tetrahydronaphthalen-1-yl)oxy)-2-methylene-4-oxobutanoyl)oxy)acetic acid (Enantiomer 1)] | 5.7 µM | 84% | 6 µM | 148% | 4.1 | 56 | 34 | 3.3 | 54 | 32 |  |  |  |  |
| C=C(CC(=O)OC1CCc2cc(C(F)(F)F)ccc21)C(=O)OCC(=O)O (single isomer, unassigned; enantiomer 2) [Example 29, 2-((2-methylene-4-oxo-4-((5-(trifluoromethyl)-2,3-dihydro-1H-inden-1-yl)oxy)butanoyl)oxy)acetic acid (Enantiomer 2)] | 18.7 µM and 25.9 µM | 141% and 175% | 5.9 µM and 11.5 µM | 147% and 211% |  | 92 | 17 |  | 10 |  | 5.8 | 11.4 | 152 |  |
| C=C(CC(=O)OC1CCc2ccc(OC(F)(F)F)cc21)C(=O)OCC(=O)O (single isomer, unassigned; enantiomer 1) [Example 28, 2-((2-methylene-4-oxo-4-((6-(trifluoromethoxy)-2,3-dihydro-1H-inden-1-yl)oxy)butanoyl)oxy)acetic acid (Enantiomer 1)] | 22.5 µM | 139% | 8 µM | 160% |  | 49 | 32 | 11.7 | 21 | 75 | 7.6 |  |  |  |
| C=C(CC(=O)OC1CCc2c(Cl)cc(F)cc21)C(=O)OCC(=O)O (single isomer, unassigned; enantiomer 2) [Example 20, 2-((4-((4-chloro-6-fluoro-2,3-dihydro-1H-inden-1-yl)oxy)-2-methylene-4-oxobutanoyl)oxy)acetic acid (Enantiomer 2)] | 31.8 µM | 155% | 12.9 µM | 234% | 3.9 | >460 | <3 |  | 11 |  |  | 1.4 | 125 |  |
